# Measurements reported in ChEMBL document CHEMBL2407028, “Discovery of novel oxazolidinedione derivatives as potent and selective mineralocorticoid receptor antagonists” (Bioorg Med Chem Lett, 2013).
# Molecular target: T1, Mineralocorticoid receptor (Homo sapiens, UniProt P08235)
# T1 sequence (P08235 whole entry): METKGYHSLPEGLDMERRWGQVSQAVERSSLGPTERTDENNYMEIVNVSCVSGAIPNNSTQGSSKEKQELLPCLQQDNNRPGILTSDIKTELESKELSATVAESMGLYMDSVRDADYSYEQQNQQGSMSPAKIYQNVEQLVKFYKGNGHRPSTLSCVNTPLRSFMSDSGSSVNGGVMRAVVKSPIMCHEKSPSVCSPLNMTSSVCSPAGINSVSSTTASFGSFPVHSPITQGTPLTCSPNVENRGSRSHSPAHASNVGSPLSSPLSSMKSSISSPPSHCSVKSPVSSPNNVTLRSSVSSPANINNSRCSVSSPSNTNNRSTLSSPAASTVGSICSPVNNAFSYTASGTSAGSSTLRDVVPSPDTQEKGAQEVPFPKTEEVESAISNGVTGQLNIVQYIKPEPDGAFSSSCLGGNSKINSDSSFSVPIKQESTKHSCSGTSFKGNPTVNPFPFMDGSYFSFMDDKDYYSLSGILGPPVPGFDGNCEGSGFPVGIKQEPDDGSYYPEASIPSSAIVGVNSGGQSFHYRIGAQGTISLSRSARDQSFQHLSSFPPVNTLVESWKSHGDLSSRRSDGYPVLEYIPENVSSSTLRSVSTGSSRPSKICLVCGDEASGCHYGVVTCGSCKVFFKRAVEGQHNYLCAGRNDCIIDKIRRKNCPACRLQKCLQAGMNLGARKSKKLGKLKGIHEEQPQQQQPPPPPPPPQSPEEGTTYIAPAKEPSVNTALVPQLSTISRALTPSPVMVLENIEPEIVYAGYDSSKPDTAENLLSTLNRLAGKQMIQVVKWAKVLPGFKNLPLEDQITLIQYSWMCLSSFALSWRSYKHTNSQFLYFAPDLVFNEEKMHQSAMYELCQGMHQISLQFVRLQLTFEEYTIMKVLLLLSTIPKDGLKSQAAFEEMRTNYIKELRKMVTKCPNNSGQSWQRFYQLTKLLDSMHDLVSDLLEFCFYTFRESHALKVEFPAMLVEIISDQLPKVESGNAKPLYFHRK
# Experiment: Antagonist activity at human mineralocorticoid receptor assessed as inhibition of binding to coactivator peptide by NH Pro assay
row,SMILES,IC50 [µM]
1,COc1cc(CNC(=O)[C@@]2(Cc3cccc4nonc34)OC(=O)N([C@H](C)c3ccccc3)C2=O)cc(OC)c1,> 40
2,COc1cc(CNC(=O)[C@@]2(Cc3ccccc3)OC(=O)N(C3CCCc4ccccc43)C2=O)cc(OC)c1 (stereo not given in full),0.17
3,COc1cc(CNC(=O)C2(Cc3ccccc3)CN(Cc3ccccc3)C(=O)N2)cc(OC)c1 (stereo not given),> 40
4,COc1cc(CNC(=O)C2(Cc3ccccc3)CN(Cc3ccccc3)C(=O)O2)cc(OC)c1 (stereo not given),> 40
5,COc1cc(CNC(=O)[C@@]2(Cc3ccccc3)OC(=O)N([C@H](C)C3CCCCC3)C2=O)cc(OC)c1,0.014
6,C[C@H](c1ccccc1)N1C(=O)O[C@](Cc2ccccc2)(C(=O)NCCc2nnc[nH]2)C1=O,> 40
7,COc1cc(CNC(=O)C2(Cc3ccccc3)CCN([C@H](C)c3ccccc3)C2=O)cc(OC)c1 (stereo not given in full),> 10
8,C[C@H](c1ccccc1)N1C(=O)O[C@](Cc2ccccc2)(C(=O)NCCc2ccncc2)C1=O,4
9,COc1cc(CNC(=O)[C@@]2(Cc3ccc4nonc4c3)OC(=O)N([C@H](C)c3ccccc3)C2=O)cc(OC)c1,> 40
10,C[C@H](c1ccccc1)N1C(=O)O[C@](Cc2ccccc2)(C(=O)Nc2cccc(F)c2)C1=O,0.3
11,COc1cc(CNC(=O)[C@@]2(Cc3ccccc3)OC(=O)N(C(C)C)C2=O)cc(OC)c1,0.5
12,C[C@H](c1ccccc1)N1C(=O)O[C@](Cc2ccccc2)(C(=O)NCCc2cn[nH]c2)C1=O,> 40
13,C[C@H](c1ccccc1)N1C(=O)O[C@](Cc2ccccc2)(C(=O)NCc2cccc3cnccc23)C1=O,3
14,COc1cc(CNC(=O)[C@@]2(Cc3ccccc3)OC(=O)N([C@@H](C)c3ccccc3)C2=O)cc(OC)c1,0.5
15,C[C@H](c1ccccc1)N1C(=O)O[C@](Cc2ccccc2)(C(=O)NCCc2ccccn2)C1=O,15
16,COc1cc(CNC(=O)[C@@]2(Cc3cccc(F)c3)OC(=O)N([C@H](C)c3ccccc3)C2=O)cc(OC)c1,0.28
17,C[C@H](c1ccccc1)N1C(=O)O[C@](Cc2ccccc2)(C(=O)N[C@H]2C[C@H](c3ccccc3)C2)C1=O,0.19
18,C[C@H](c1ccccc1)N1C(=O)O[C@](Cc2ccccc2)(C(=O)NCc2cccnc2)C1=O,13
19,C[C@H](c1ccccc1)N1C(=O)O[C@](Cc2ccccc2)(C(=O)NCc2ccc(Cl)cc2)C1=O,0.2
20,C[C@H](c1ccccc1)N1C(=O)O[C@](Cc2ccccc2)(C(=O)N[C@H](C)c2cccc(Cl)c2)C1=O,0.4
21,C[C@H](c1ccccc1)N1C(=O)O[C@](Cc2ccccc2)(C(=O)NCc2cccc(Cl)c2)C1=O,0.28
22,COc1cccc(CNC(=O)[C@@]2(Cc3ccccc3)OC(=O)N([C@H](C)c3ccccc3)C2=O)c1,0.3
23,C[C@H](c1ccccc1)N1C(=O)O[C@](Cc2ccccc2)(C(=O)NCc2cccc3ccnn23)C1=O,0.3
24,COc1cc(CNC(=O)[C@@]2(Cc3ccc(F)cc3)OC(=O)N([C@H](C)c3ccccc3)C2=O)cc(OC)c1,0.2

row,SMILES,IC50 [µM]
1,COc1cccc(CNC(=O)[C@@]2(Cc3ccccc3)OC(=O)N(Cc3ccccc3)C2=O)c1,1
2,COc1cc(CNC(=O)[C@]2(Cc3ccccc3)C(=O)N(Cc3ccccc3)C(=O)N2C)cc(OC)c1,> 40
3,COc1cc(CNC(=O)[C@@]2(Cc3ccc4ccccc4c3)OC(=O)N([C@H](C)c3ccccc3)C2=O)cc(OC)c1,> 40
4,C[C@H](c1ccccc1)N1C(=O)O[C@](Cc2ccccc2)(C(=O)Nc2ccc(F)cc2)C1=O,0.1
5,O=C1O[C@](Cc2ccccc2)(C(=O)NCc2nccs2)C(=O)N1Cc1ccccc1,> 40
6,CCn1cc(CNC(=O)[C@@]2(Cc3ccccc3)OC(=O)N([C@H](C)c3ccccc3)C2=O)cn1,> 10
7,C[C@H](c1ccccc1)N1C(=O)O[C@](Cc2ccccc2)(C(=O)Nc2ccccc2Cl)C1=O,1
8,C[C@H](c1ccccc1)N1C(=O)O[C@](Cc2ccccc2)(C(=O)N[C@@H]2C[C@H]2c2ccccc2)C1=O,0.25
9,C[C@H](c1ccc(F)cc1)N1C(=O)O[C@](Cc2ccccc2)(C(=O)Nc2ccccc2)C1=O,0.27
10,COc1cc(CNC(=O)[C@@]2(Cc3ccc(Cl)cc3)OC(=O)N([C@H](C)c3ccccc3)C2=O)cc(OC)c1,> 40
11,COc1cc(CNC(=O)C2(Cc3ccccc3)CCN(Cc3ccccc3)C2)cc(OC)c1 (stereo not given),> 40
12,Cc1cc(CNC(=O)[C@@]2(Cc3ccccc3)OC(=O)N([C@H](C)c3ccccc3)C2=O)on1,3
13,C[C@H](c1ccccc1)N1C(=O)O[C@](Cc2ccccc2)(C(=O)NCc2cccc(C(F)(F)F)c2)C1=O,0.5
14,COc1cc(CNC(=O)[C@@]2(Cc3ccccc3Cl)OC(=O)N([C@H](C)c3ccccc3)C2=O)cc(OC)c1,0.45
15,C[C@H](c1ccccc1)N1C(=O)O[C@](Cc2ccccc2)(C(=O)NCc2ccc3cnccc3c2)C1=O,1.5
16,C[C@H](c1ccccc1)N1C(=O)O[C@](Cc2ccccc2)(C(=O)NCc2ccc(C(F)(F)F)cc2)C1=O,0.57
17,C[C@H](c1ccccc1)N1C(=O)O[C@](Cc2ccccc2)(C(=O)NCc2cccc(S(C)(=O)=O)c2)C1=O,3
18,COc1cc(CNC(=O)[C@H]2OC(=O)N(Cc3ccccc3)C2=O)cc(OC)c1,> 40
19,C[C@H](c1ccccc1)N1C(=O)O[C@](Cc2ccccc2)(C(=O)NCc2ccc3ccccc3n2)C1=O,2.5
20,COc1cc(CNC(=O)[C@@]2(Cc3ccccc3)OC(=O)N([C@H](C)c3ccc(F)cc3)C2=O)cc(OC)c1,0.037
21,C[C@H](c1ccccc1)N1C(=O)O[C@](Cc2ccccc2)(C(=O)NC2CC2)C1=O,2
22,COc1cc(CNC(=O)[C@@]2(Cc3ccccc3)OC(=O)N(C3CCN(C(=O)C(F)(F)F)CC3)C2=O)cc(OC)c1,2.9
23,C[C@H](c1ccccc1)N1C(=O)O[C@](Cc2ccccc2)(C(=O)NC2CCCCC2)C1=O,4
24,C[C@H](c1ccccc1)N1C(=O)O[C@](Cc2ccccc2)(C(=O)NC2CCC2)C1=O,1.2

row,SMILES,IC50 [µM]
1,C[C@H](c1ccccc1)N1C(=O)O[C@](Cc2ccccc2)(C(=O)Nc2ccc3ccccc3c2)C1=O,0.6
2,C[C@H](c1ccccc1)N1C(=O)O[C@](Cc2ccccc2)(C(=O)NCc2ccncc2)C1=O,> 40
3,C[C@H](c1ccccc1)N1C(=O)O[C@](Cc2ccccc2)(C(=O)Nc2ccc(C#N)cc2)C1=O,0.1
4,COc1ccccc1CNC(=O)[C@@]1(Cc2ccccc2)OC(=O)N([C@H](C)c2ccccc2)C1=O,0.5
5,COc1cc(CNC(=O)[C@@]2(Cc3ccccc3)OC(=O)N([C@H](C)c3ccc(Cl)cc3)C2=O)cc(OC)c1,0.055
6,C[C@H](c1ccccc1)N1C(=O)O[C@](Cc2ccccc2)(C(=O)N2CCc3ccccc3C2)C1=O,0.34
7,C[C@H](c1ccccc1)N1C(=O)O[C@](Cc2ccccc2)(C(=O)NCc2ccc(S(C)(=O)=O)cc2)C1=O,> 10
8,COc1cc(CNC(=O)C2(Cc3ccccc3)CC(=O)N([C@H](C)c3ccccc3)C2=O)cc(OC)c1 (stereo not given in full),> 40
9,COc1cc(CNC(=O)[C@@]2(Cc3ccccc3)OC(=O)N(Cc3ccccc3)C2=O)cc(OC)c1,3
10,C[C@H](c1ccccc1)N1C(=O)O[C@](Cc2ccccc2)(C(=O)Nc2cccc(Cl)c2)C1=O,2
11,COc1cc(CNC(=O)[C@@]2(Cc3ccccn3)OC(=O)N([C@H](C)c3ccccc3)C2=O)cc(OC)c1,3
12,C[C@H](c1ccccc1)N1C(=O)N[C@](Cc2ccccc2)(C(=O)N2CCc3ccccc3C2)C1=O,0.99
13,COc1cc(CNC(=O)[C@@]2(Cc3cccc(Cl)c3)OC(=O)N([C@H](C)c3ccccc3)C2=O)cc(OC)c1,0.75
14,COc1cc(CNC(=O)[C@@]2(Cc3ccncc3)OC(=O)N(Cc3ccccc3)C2=O)cc(OC)c1,30
15,COc1cc(CNC(=O)[C@@]2(Cc3ccccc3)NC(=O)N(Cc3ccccc3)C2=O)cc(OC)c1,> 40
16,C[C@H](c1ccccc1)N1C(=O)O[C@](Cc2ccccc2)(C(=O)N[C@H]2C[C@@H](c3ccccc3)C2)C1=O,0.65
17,C[C@H](c1ccccc1)N1C(=O)O[C@](Cc2ccccc2)(C(=O)NCc2ccccn2)C1=O,16
18,COc1cc(CNC(=O)[C@@]2(Cc3ccccc3F)OC(=O)N([C@H](C)c3ccccc3)C2=O)cc(OC)c1,0.3
19,C[C@H](NC(=O)[C@@]1(Cc2ccccc2)OC(=O)N([C@H](C)c2ccccc2)C1=O)c1cccc(Cl)c1,2.6
20,CC[C@H](c1ccccc1)N1C(=O)O[C@](Cc2ccccc2)(C(=O)NCc2cc(OC)cc(OC)c2)C1=O,0.4
21,COc1ccc(CNC(=O)[C@@]2(Cc3ccccc3)OC(=O)N([C@H](C)c3ccccc3)C2=O)cc1,1
22,C[C@H](c1ccc(F)cc1)N1C(=O)O[C@](Cc2ccccc2)(C(=O)Nc2ccc(Cl)cc2)C1=O,0.18
